We go through two compounds from patent US20240158639A1, “PROCESS FOR PREPARING INDOCYANINE GREEN” (ICROM Srl, priority 2021, published 2024).

Where two headings read alike, the source gives them in different places. A value given as a limit tells only on which side of the number the result lay.

For data set [1] the following is noted: in vivo, iv; cited from earlier work.
Data set [2] is described as follows: Stability of the HPLC sample solution. The data set is classed as physicochemical. As to the method:
Sonicate for 5 minutes verifying complete solubilization.

[3] abbreviates: 10° C., 30 days, in nitrogen, aluminium + polythene, MeOH.
The mark [4] stands for this setting: 10° C., 30 days, no nitrogen, polythene, MeOH.
Where [5] appears, read: 20-25° C., 30 days, in nitrogen, aluminium + polythene, MeOH.
[6] abbreviates: 20-25° C., 30 days, no nitrogen, polythene, MeOH.
[7] abbreviates: t0, no nitrogen, polythene, diluent MeOH, % area 254 nm.

As for “1H-benz[e]indole, 2-[7-[1,3-dihydro-1,1-dimethyl-3-(4-sulfobutyl)-2H-benz[e]indol-2-ylidene]-1,3,5-heptatrienyl]-1,1-dimethyl-3-(4-sulfobutyl) hydroxide, inner salt, sodium salt [compound of formula (I)]”, the “half-life of elimination by the body” value in data set [1] is 3 to 4 min. The “time for which the sample solution is stable” value in data set [2] (sample preparation method 1: 40 mg in 50 ml mixture phase 70:30 A:B) and in data set [2] (sample preparation method 2: 40 mg in 50 ml methanol) was at most 30 min in each case.

Consider `CC1(C)C(/C=C/C=C/C=C/C=C2\N(CCCCS(=O)(=O)[O-])c3ccc4ccccc4c3C2(C)C)=[N+](CCCCS(=O)(=O)[O-])c2ccc3ccccc3c21.[Na+]` [067/046], for which, under setting [3], the “% rt 3.5 (A)” value was “nq”, the “% rt 4.0” value was 0.02%, the “% rt 8.9” value is reported as 0.04% and the “INNmax (unknown maximum impurity) %” value worked out at 0.07%. Besides, the Purity under setting [3] is given as 99.77%. Under setting [4], the “% rt 3.5 (A)” value is recorded as “nq”, the “% rt 4.0” value turned out to be 0.04%, the “% rt 8.9” value was 0.04% and the “INNmax (unknown maximum impurity) %” value worked out at 0.06%. This compound also came in with a Purity under setting [4] of 99.84%. In addition, under setting [5], the “% rt 3.5 (A)” value is “nq”, the “% rt 4.0” value is 0.03%, the “% rt 8.9” value is recorded as 0.05% and the “INNmax (unknown maximum impurity) %” value stood at 0.08%. Also, the Purity under setting [5] worked out at 99.71%. Further, under setting [6], the “% rt 3.5 (A)” value was “nq”, the “% rt 4.0” value was found to be 0.076%, the “% rt 8.9” value was 0.05% and the “INNmax (unknown maximum impurity) %” value is on record as 0.076%. Under setting [6], this compound gave a Purity of 99.78%. Under setting [7], the “% rt 3.5 (A)” value is “nq”, the “% rt 4.0” value amounted to 0.02%, the “% rt 8.9” value is 0.03% and the “INNmax (unknown maximum impurity) %” value is 0.07%. This compound also yielded a Purity under setting [7] of 99.73%.
